Compound | melting point
CC(=O)O[C@H]1OCC[C@@H]1NC(=O)[C@H](CC(C)C)NC(=O)c1ccc2c(c1)Nc1ccccc1S2 [Example 18.1, (2R,3S)-3-({(2S)-4-methyl-2-[(10H-phenothiazin-2-ylcarbonyl)amino]-pentanoyl}amino)tetrahydro-2-furanyl acetate] | 199 to 201 °C
CC(=O)O[C@@H]1OCC[C@@H]1NC(=O)[C@H](CC(C)C)NC(=O)c1ccc2c(c1)Nc1ccccc1S2 [Example 18.2, (2S,3S)-3-({(2S)-4-methyl-2-[(10H-phenothiazin-2-ylcarbonyl)amino]-pentanoyl}amino)tetrahydro-2-furanyl acetate] | 205 to 208 °C

Source: US6747024B1, “Heterocyclic compounds and their use as medicines” (Societe de Conseils de Recherches et d'Applications …, priority 1999, dated 2004)
